{"source": "paper PMC9909341", "about": "“TLQP-21 is a low potency partial C3aR activator on human primary macrophages” (Frontiers in Immunology, 2023)", "key": {"[1]": {"tested_on": "C3aR", "conditions": "at the concentration used (5 µM); ref [20]; cited from earlier work", "from_the_text": "(§1) However, only mouse TLQP-21 was used in these studies and to the best of our knowledge, no data is available for the potential activity of TLQP-21 in human immune cells. […] However, by contrast to hC3a, the agonistic activity of TLQP-21 peptides was markedly weaker in HMDMs relative to CHO-C3aR, with EC50 values in the high micromolar ..."}, "[2]": {"tested_on": "C5aR1", "conditions": "at the concentration used (5 µM); ref [20]; cited from earlier work", "from_the_text": "as §1"}, "[3]": {"tested_on": "human C3aR (HMDMs)", "assay": "inhibition of ligand-induced ERK1/2 phosphorylation by SB290157 in HMDMs", "type": "cell-based", "conditions": "5 µM SB290157, 30 min pre-treatment", "from_the_text": "HMDMs were generated and cultured as previously described ([20]), with experiments approved by The University of Queensland Human Research Ethics Committee. Briefly, human buffy coat blood from anonymous healthy donors was obtained through the Australian Red Cross Blood Service (Brisbane, Australia). Human CD14+ monocytes were isolated from blood using Lymphoprep density centrifugation (STEMCELL, Melbourne, Australia) followed by CD14+ MACS magnetic bead separation (Miltenyi Biotec, Sydney, Australia). The isolated monocytes were differentiated for 7 days in Iscove’s Modified Dulbecco’s Medium supplemented with 10% FBS, 100 IU/ml penicillin, 100 μg/ml streptomycin and 15 ng/ml recombinant human macrophage colony stimulating factor (BioLegend, San Diego, USA) on 10 mm square dishes (Bio-strategy, Brisbane, Australia). Non-adherent cells were removed by washing with DPBS, and the adherent differentiated HMDMs were harvested by gentle scraping.\nLigand-induced ERK1/2 phosphorylation was assessed using the AlphaLISA Surefire Ultra p-ERK1/2 (Thr202/Tyr204) kit (PerkinElmer, Melbourne, Australia) following the manufacturer’s protocol as previously described ([18], [20], [22]). Briefly, CHO-K1, CHO-C3aR, CHO-C5aR1, HMDMs (50,000/well) or BMDMs (90,000/well) were seeded in tissue culture-treated 96-well plates (Corning, Corning, USA) for 24 h and serum-starved overnight. All ligand dilutions were prepared in serum-free medium (SFM) containing 0.1% BSA. For inhibition assays, cells were pre-treated with the following ligands (5 µM SB290157, or respective concentrations of hC3a, mC3a, hC5a, hTLQP-21, and mTLQP-21) or the solvent-only control for 30 min before agonist (hC3a, hTLQP-21 and mTLQP-21) addition. The concentration and identity of the ligands are described in detail in the figure legends. For stimulation, cells were treated with ligands at the indicated concentrations for 10 min at RT and then immediately lysed using AlphaLISA lysis buffer on a microplate shaker (450 rpm, 10 min). For the detection of phospho-ERK1/2 content, cell lysate (5 μL/well) was transferred to a 384-well ProxiPlate (PerkinElmer, Melbourne, Australia) and added to the donor and acceptor reaction mix (2.5 μL/well, respectively), followed by a 2-h incubation at RT in the dark. On a Tecan Spark 20M (Tecan, Männedorf, Switzerland), the plate was measured using standard AlphaLISA settings.\nFigure 3 Agonistic and antagonistic activities of hTLQP-21 and mTLQP-21 in human monocyte-derived macrophages. […] The phospho-ERK1/2 content in the cell lysate was measured and normalised to the maximum hC3a/hC5a-induced levels before being combined. […]"}}}
{"smiles": "NC(N)=NCCC[C@H](NC(=O)COCC(c1ccccc1)c1ccccc1)C(=O)O", "note": "[SB290157]", "values": [{"measurement": "agonist activity of SB290157 on C3aR", "setting": "[1]", "value": "does not exhibit any detectable agonist activity"}, {"measurement": "agonist activity of SB290157 on C5aR1", "setting": "[2]", "value": "does not exhibit any detectable agonist activity"}, {"measurement": "inhibition of hTLQP-21 and mTLQP-21 induced ERK signalling", "setting": "[3]; HMDMs, n = 4 donors", "value": "70-90%"}, {"measurement": "remaining C3a-induced ERK signalling with SB290157", "setting": "[3]; agonist C3a, HMDMs", "value": "less than 20 % of the untreated level"}, {"measurement": "remaining hTLQP-21 induced ERK activation with SB290157", "setting": "[3]; agonist hTLQP-21", "value": "29 % of the control level"}, {"measurement": "remaining mTLQP-21 induced ERK activation with SB290157", "setting": "[3]; agonist mTLQP-21", "value": "16 % of the control level"}]}
